Laboratory results taken from patent US20120004244A1, “Bis Aromatic Compounds for Use as LTC4 Synthase Inhibitors” (BIOLIPOX AB, priority 2009, published 2012).

target: T1, Recombinant human LTC4 synthase (Homo sapiens, UniProt Q16873); assay: LTC4 synthase in vitro assay (LTA4 to LTC4, HTRF detection); assay type: biochemical; conditions: not given
T1 construct: made in house; host or cells: Pichia pastoris ('Piccia pastoralis' [sic])
T1 sequence (Q16873 1-150): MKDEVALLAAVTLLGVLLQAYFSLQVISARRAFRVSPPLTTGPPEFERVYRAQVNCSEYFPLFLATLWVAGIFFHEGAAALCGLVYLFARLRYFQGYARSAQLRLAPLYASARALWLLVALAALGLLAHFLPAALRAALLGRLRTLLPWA
Experimental: In the assay, LTC4 synthase catalyses the reaction where the substrate LTA4 is converted to LTC4. Recombinant human LTC4 synthase is expressed in Piccia pastoralis and the purified enzyme is dissolved in 25 mM tris-buffer pH 7.8 supplemented with 0.1 mM glutathione (GSH) and stored at −80° C. The assay is performed in phosphate buffered saline (PBS) pH 7.4 and 5 mM GSH in 384-well plates.
The following is added chronologically to each well:
1.48 μL LTC4 synthase in PBS with 5 mM GSH. The total protein concentration in this solution is 0.5 μg/mL. 2. 1 μL inhibitor in DMSO (final concentration 10 μM). 3. Incubation of the plate at room temperature for 10 min. 4. 1 μL LTA4 (final concentration 2.5 μM). 5. Incubation of the plate at room temperature for 5 min. 6. 10 μL of the incubation mixture is analysed using homogenous time resolved fluorescent (HTRF) detection.

Going from N#Cc1ccccc1Oc1ccccc1Oc1ccc(C(=O)c2ccc(N(CC3CC3)c3ccc(Cl)cc3)cn2)cc1C(=O)O [1:32, 5-{5-[(4-Chlorophenyl)(cyclopropylmethyl)amino]picolinoyl}-2-[2-(2-cyanophenoxy)phenoxy]benzoic acid] to O=C(c1ccc(Oc2ccccc2Oc2ccccc2Cl)c(C(=O)O)c1)c1ccc(N(CC2CC2)c2ccc(Cl)cc2)cn1 [1:45, 2-[2-(2-Chlorophenoxy)phenoxy]-5-{5-[(4-chlorophenyl)(cyclopropylmethyl)amino]picolinoyl}benzoic acid], the IC50 rises from 20 nM to 32 nM (1.6-fold). The first is the more potent here.

First: C#CCN(c1ccc(C(=O)c2ccc(Oc3ccccc3F)c(C(=O)O)c2)nc1)c1ccc(Cl)cc1F [1:33, 5-{5-[(4-Chloro-2-fluorophenyl)(2-propynyl)amino]picolinoyl}-2-(2-fluorophenoxy)benzoic acid]
Second: O=C(c1ccc(Oc2ccccc2F)c(C(=O)O)c1)c1ccc(N(CC2CC2)c2ccc(Cl)cc2F)cn1 [1:34, 5-{5-[(4-Chloro-2-fluorophenyl)(cyclopropylmethyl)amino]picolinoyl}-2-(2-fluorophenoxy)benzoic acid]
The IC50 of the first is 1.8-fold higher: 351 nM for the first, 195 nM for the second. The second is the more potent here.

First: O=C(c1ccc(Oc2ccccc2F)c(C(=O)O)c1)c1ccc(N(CC(F)(F)F)c2ccc(Cl)cc2F)cn1 [1:35, 5-{5-[(4-Chloro-2-fluorophenyl)-(2,2,2-trifluoroethyl)amino]picolinoyl}-2-(2-fluorophenoxy)benzoic acid]
Second: CC1(CN(c2ccc(C(=O)c3ccc(Oc4ccccc4F)c(C(=O)O)c3)nc2)c2ccc(Cl)cc2F)COC1 [1:41, 5-{5-[(4-Chloro-2-fluorophenyl)-(3-methyloxetan-3-ylmethyl)amino]picolinoyl}-2-(2-fluorophenoxy)benzoic acid]
The IC50 of the first is 2.1-fold lower: 621 nM for the first, 1320 nM for the second. The first is the more potent here.

O=C(c1ccc(Oc2ccccc2CCCO)c(C(=O)O)c1)c1ccc(N(CC2CC2)c2ccc(Cl)cc2)cn1 [1:36, 5-{5-[(4-Chlorophenyl)(cyclopropylmethyl)amino]picolinoyl}-2-[2-(3-hydroxypropyl)phenoxy]benzoic acid] and O=C(c1ccc(Oc2ccccc2F)c(C(=O)O)c1)c1ccc(N(CC2CC2)c2ccc(Cl)cc2)cn1 [1:38, 5-{5-[(4-Chlorophenyl)(cyclopropylmethyl)amino]picolinoyl}-2-(2-fluorophenoxy)benzoic acid] are within 1.5-fold of each other in IC50: 116 nM for the first, 79 nM for the second.

First: CS(=O)(=O)c1ccc(Oc2ccc(C(=O)c3ccc(N(CC4CC4)c4ccc(Cl)cc4)cn3)cc2C(=O)O)cc1 [1:37, 5-{5-[(4-Chlorophenyl)(cyclopropylmethyl)amino]picolinoyl}-2-(4-methylsulfonylphenoxy)benzoic acid]
Second: O=C(c1ccc(Oc2ccccc2Oc2ccccc2)c(C(=O)O)c1)c1ccc(N(CC2CC2)c2ccc(Cl)cc2)cn1 [1:40, 5-{5-[(4-Chlorophenyl)(cyclopropylmethyl)amino]picolinoyl}-2-(2-phenoxyphenoxy)benzoic acid]
The IC50 of the first is 4.5-fold higher: 300 nM for the first, 66 nM for the second.

COc1cc(OC)cc(Oc2ccc(C(=O)c3ccc(N(CC4CC4)c4ccc(Cl)cc4)cn3)cc2C(=O)O)c1 [1:39, 5-{5-[(4-Chlorophenyl)(cyclopropylmethyl)amino]picolinoyl}-2-(3,5-dimethoxyphenoxy)benzoic acid] and O=C(c1ccc(Oc2ccccc2Oc2cccnc2)c(C(=O)O)c1)c1ccc(N(CC2CC2)c2ccc(Cl)cc2)cn1 [1:43, 5-{5-[(4-Chlorophenyl)(cyclopropylmethyl)amino]picolinoyl}-2-[2-(3-pyridyloxy)phenoxy]benzoic acid] are within 1.5-fold of each other in IC50: 70 nM for the first, 61 nM for the second.

O=C(c1ccc(Oc2ccccc2Oc2ccc(F)cc2F)c(C(=O)O)c1)c1ccc(N(CC2CC2)c2ccc(Cl)cc2)cn1 [1:42, 5-{5-[(4-Chlorophenyl)(cyclopropylmethyl)amino]picolinoyl}-2-[2-(2,4-difluorophenoxy)phenoxy]benzoic acid] and O=C(c1ccc(Oc2ccccc2Oc2ccccc2F)c(C(=O)O)c1)c1ccc(N(CC2CC2)c2ccc(Cl)cc2)cn1 [1:46, 5-{5-[(4-Chlorophenyl)(cyclopropylmethyl)amino]picolinoyl}-2-[2-(2-fluorophenoxy)phenoxy]benzoic acid] are within 1.5-fold of each other in IC50: 52 nM for the first, 40 nM for the second.

Compared with O=C(c1ccc(Oc2ccccc2Oc2ccccn2)c(C(=O)O)c1)c1ccc(N(CC2CC2)c2ccc(Cl)cc2)cn1 [1:44, 5-{5-[(4-Chlorophenyl)(cyclopropylmethyl)amino]picolinoyl}-2-[2-(2-pyridyloxy)phenoxy]benzoic acid], CN(c1ccc(Cl)cc1)c1ccc(C(=O)c2ccc(Oc3ccccc3[S+](C)[O-])c(C(=O)O)c2)nc1 (centres unmarked) [1:47, 5-{5-[(4-Chlorophenyl)(methyl)amino]picolinoyl}-2-(2-methylsulfinylphenoxy)-benzoic acid] is 18-fold higher in IC50: 57 nM for the first, 1030 nM for the second.

Going from CN(c1ccc(Cl)cc1)c1ccc(C(=O)c2ccc(Oc3ccccc3S(C)(=O)=O)c(C(=O)O)c2)nc1 [1:48, 5-{5-[(4-Chlorophenyl)(methyl)amino]picolinoyl}-2-(2-methylsulfonylphenoxy)-benzoic acid] to COc1ccccc1CNc1ccc(C(=O)c2ccc(N(C)c3ccc(Cl)cc3)cn2)cc1C(=O)O [2:8, 5-{5-[(4-Chlorophenyl)(methyl)amino]picolinoyl}-2-(2-methoxybenzylamino)benzoic acid], the IC50 falls from 632 nM to 132 nM (4.8-fold).

First: CN(c1ccc(Cl)cc1)c1ccc(C(=O)c2ccc(Nc3ccc(C(F)(F)F)cc3)c(C(=O)O)c2)nc1 [2:1, 5-{5-[(4-Chlorophenyl)(methyl)amino]picolinoyl}-2-(4-trifluoromethylphenyl-amino)benzoic acid]
Second: COc1ccc(CNc2ccc(C(=O)c3ccc(N(C)c4ccc(Cl)cc4)cn3)cc2C(=O)O)cc1 [2:6, 5-{5-[(4-Chlorophenyl)(methyl)amino]picolinoyl}-2-(4-methoxybenzylamino)benzoic acid]
The IC50 of the first is 2.8-fold lower: 53 nM for the first, 151 nM for the second.

Going from CN(c1ccc(Cl)cc1)c1ccc(C(=O)c2ccc(NC3CCC(C(C)(C)C)CC3)c(C(=O)O)c2)nc1 (centres unmarked) [2:2, 2-(4-tert-Butylcyclohexylamino)-5-{5-[(4-chlorophenyl)(methyl)amino]picolinoyl}-benzoic acid] to CN(c1ccc(Cl)cc1)c1ccc(C(=O)c2ccc(NC3CCCCC3)c(C(=O)O)c2)nc1 [2:4, 5-{5-[(4-Chlorophenyl)(methyl)amino]picolinoyl}cyclohexylaminobenzoic acid], the IC50 rises from 66 nM to 140 nM (2.1-fold). The first is the more potent here.

Compared with CN(c1ccc(Cl)cc1)c1ccc(C(=O)c2ccc(NCc3ccccc3)c(C(=O)O)c2)nc1 [2:3, 2-Benzylamino-5-{5-[(4-chlorophenyl)(methyl)amino]picolinoyl}benzoic acid], CN(c1ccc(Cl)cc1)c1ccc(C(=O)c2ccc(NCc3cccnc3)c(C(=O)O)c2)nc1 [2:9, 5-{5-[(4-Chlorophenyl)(methyl)amino]picolinoyl}-2-[(3-pyridylmethyl)amino]benzoic acid] is 5.1-fold higher in IC50: 92 nM for the first, 466 nM for the second.

Compared with CN(c1ccc(Cl)cc1)c1ccc(C(=O)c2ccc(N3CCC(C(C)(C)C)CC3)c(C(=O)O)c2)nc1 [2:5, 2-(4-tert-Butylpiperidin-1-yl)-5-{5-[(4-chlorophenyl)(methyl)amino]picolinoyl}benzoic acid], COc1cccc(CNc2ccc(C(=O)c3ccc(N(C)c4ccc(Cl)cc4)cn3)cc2C(=O)O)c1 [2:7, 5-{5-[(4-Chlorophenyl)(methyl)amino]picolinoyl}-2-(3-methoxybenzylamino)benzoic acid] is 23-fold lower in IC50: 3000 nM for the first, 133 nM for the second.

same assay, conditions: 5 min; total concentration of title compound in the assay 10 μM

Compared with CN(c1ccc(Cl)cc1)c1ccc(C(=O)c2ccc(Oc3ccccc3[S+](C)[O-])c(C(=O)O)c2)nc1 (centres unmarked) [1:47, 5-{5-[(4-Chlorophenyl)(methyl)amino]picolinoyl}-2-(2-methylsulfinylphenoxy)-benzoic acid], CN(c1ccc(Cl)cc1)c1ccc(C(=O)c2ccc(Oc3ccccc3S(C)(=O)=O)c(C(=O)O)c2)nc1 [1:48, 5-{5-[(4-Chlorophenyl)(methyl)amino]picolinoyl}-2-(2-methylsulfonylphenoxy)-benzoic acid] is higher in inhibition at 10 µM: 88% for the first, 95% for the second.

CN(c1ccc(Cl)cc1)c1ccc(C(=O)c2ccc(Nc3ccc(C(F)(F)F)cc3)c(C(=O)O)c2)nc1 [2:1, 5-{5-[(4-Chlorophenyl)(methyl)amino]picolinoyl}-2-(4-trifluoromethylphenyl-amino)benzoic acid] gave an inhibition at 10 µM of 99%.
